Each structure is given as a SMILES string.

Series [1] concerns MDA-MB-468 (a breast cancer cell line). Nature of the series: MTT cell viability assay, MDA-MB-468. Type of series: cell-based. The settings on record: Homo sapiens, MDA-MB-468, 72 hrs. As for the experimental part: (§1) MDA-MB-453 (ATCC HTB-131) cells were grown in media with sodium pyruvate. MDA-MB-231 cells (ATCC HTB-26) were grown in DMEM media or L-15 supplemented with Glutamax (1×). U87-MG (ATCC HTB-14) and MDA-MB-468 (ATCC HTB-132) cells were cultured in DMEM supplemented with Glutamax (1×). NB-4 (DSMZ ACC-207) cells were cultured in RPMI 1640.
(§2) Breast cancer and glioblastoma cell lines were plated 4000 cells/well in 96-well plates in the presence of 10% FBS media. The following day cells were treated with various concentrations of the example compounds (0.1% DMSO final) and incubated for 72 hrs. After the incubation an MTT assay was performed to access cell viability. Percent of viability was determined using DMSO vehicle and no cell (blank) controls.

Another series has as its system MDA-MB-231 cells. Put plainly: Alamar-Blue cell viability assay. The settings on record: Homo sapiens, MDA-MB-231, 72 hrs. Type of series: cell-based, human. The procedure: MDA-MB-231 cells were plated 2000 cells/well in 96-well black optical plates in the presence of 10% FBS media containing 25 nM selenite. The following day cells were treated with various concentrations of compounds (0.1% DMSO final) and incubated for 72 hrs. After the incubation Alamar Blue reagent was added to each well and incubated for additional 3 hrs. Fluorescence was read ex:530 nm/em:590 nm, and percent of viability was determined using DMSO vehicle and no cell (blank) controls.
A general note: Resazurin is reduced to fluorescent resorufin, in cell work by metabolically active cells.

Another series relates to 4T1 tumors. Nature of the series: Intratumoral immune cell populations in engrafted 4T1 tumors in BALB/c mice (FACS). Type of series: in vivo. The settings on record: 1 mg/kg intratumorally bid for 5 days, day 6. As for the experimental part: Intratumoral immune cell populations within engrafted 4T1 cells in BALB/c mice. 4T1 cells are a murine mammary carcinoma cell line. BALB/c mice are immunocompetent. 1×10^6 4T1 tumor cells in 0% Matrigel were implanted orthotopically into the mammary fat pad. Enrollment of the mice into the treatment arms commenced when the tumors reached an average volume between 175-200 mm^3. […] Tumor volumes were measured using a digital caliper on day 1, 3, and 6 of the study. On day 6 mice were euthanized and tumors were resected for FACs analysis. Populations of murine immune cells including CD45+, CD4+, CD8+, and Tregs were analyzed. CD45+ positive cells were analyzed as the percentage of live cells. CD4+, CD8+, and Tregs cells were analyzed as percentage of CD45+ positive cells.

The next series addresses T1, GR from baker's yeast (Saccharomyces cerevisiae, UniProt P41921).
T1 sequence (P41921 17-483 limits assumed): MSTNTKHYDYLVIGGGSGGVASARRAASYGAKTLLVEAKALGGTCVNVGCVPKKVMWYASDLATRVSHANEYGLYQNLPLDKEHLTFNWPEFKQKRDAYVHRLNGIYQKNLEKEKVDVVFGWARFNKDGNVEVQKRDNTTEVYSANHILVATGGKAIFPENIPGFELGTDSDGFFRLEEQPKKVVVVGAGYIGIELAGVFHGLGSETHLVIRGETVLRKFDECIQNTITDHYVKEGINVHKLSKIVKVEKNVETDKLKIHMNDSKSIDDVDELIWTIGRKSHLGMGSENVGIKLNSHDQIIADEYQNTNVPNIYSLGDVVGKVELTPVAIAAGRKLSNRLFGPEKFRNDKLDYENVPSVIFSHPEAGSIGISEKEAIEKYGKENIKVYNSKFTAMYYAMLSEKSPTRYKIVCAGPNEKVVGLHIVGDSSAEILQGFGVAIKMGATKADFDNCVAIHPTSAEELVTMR
Nature of the series: Glutathione reductase (GR) activity assay. Type of series: biochemical. The settings on record: Molar concentration.

Series [2] has as its system NB-4 (a leukaemia cell line). Put plainly: MTT cell viability assay, NB-4. Type of series: cell-based. The settings on record: 72 hrs. As for the experimental part:
as §1, §2
(In general: Formazan colour is commonly taken as a measure of viable cells.)

For series [3], the system named is U-87 MG (a glioblastoma cell line). Nature of the series: MTT cell viability assay, U-87 MG. Type of series: cell-based. The settings on record: Homo sapiens, U-87 MG, 72 hrs. The procedure:
as §1, §2

The next series has as its target T2, recombinant TrxR (Rattus norvegicus, UniProt O89049).
T2 sequence (O89049 1-499): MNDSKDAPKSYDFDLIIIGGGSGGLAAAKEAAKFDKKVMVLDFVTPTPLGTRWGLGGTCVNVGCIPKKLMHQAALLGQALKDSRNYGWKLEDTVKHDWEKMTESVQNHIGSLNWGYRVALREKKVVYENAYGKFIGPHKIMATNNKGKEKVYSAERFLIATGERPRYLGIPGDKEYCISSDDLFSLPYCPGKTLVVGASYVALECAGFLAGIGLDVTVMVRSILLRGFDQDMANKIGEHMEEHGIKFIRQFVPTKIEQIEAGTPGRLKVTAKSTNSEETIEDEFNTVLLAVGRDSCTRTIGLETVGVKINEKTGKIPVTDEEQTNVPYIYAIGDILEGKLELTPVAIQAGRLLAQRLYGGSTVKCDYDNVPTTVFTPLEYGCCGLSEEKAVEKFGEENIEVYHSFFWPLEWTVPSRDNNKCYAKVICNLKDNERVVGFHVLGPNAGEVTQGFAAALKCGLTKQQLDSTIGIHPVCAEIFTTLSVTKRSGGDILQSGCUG
Nature of the series: Sec-independent SecTRAP activity (Juglone assay). The following applies: for Juglone Act (% @ 100% DTNB inhibition): compound at the concentration that achieves 100% inhibition of TrxR in the DTNB assay.

Experimental for GR from baker's yeast: GR activity was determined incubating compounds at various concentrations with GR from baker's yeast and 250 μM NADPH for 15 minutes, whereupon 10 mM oxidized glutathione (GSSG) was added to each well and NADPH consumption was followed at OD340. Activity was determined following the consumption of NADPH over time and normalized to DMSO only (Vehicle) and GR lacking (blank) controls.
Experimental for recombinant TrxR: SecTRAP forming capabilities of compounds with TrxR was determined using the Juglone Assay. Compounds were incubated in the presence of recombinant TrxR and 250 μM NADPH for 15 minutes at concentrations fully inhibiting enzyme activity in the DTNB assay. 100 μM juglone was then added to each well and NADPH consumption was followed at OD340 to determine sustained reductive capacity at the N-terminus of TrxR (SecTRAP Activity). Activity was determined following the consumption of NADPH over time and normalized to DMSO only (Vehicle) and TrxR lacking (blank) controls.
Aliquots were used in a DTNB assay to determine inhibition of enzyme activity. […] Incubation samples were then added to a reaction buffer containing 250 μM NADPH and 100 μM juglone, whereupon NADPH consumption was followed at OD340 to determine sustained SecTRAP activity.
Higher % values for juglone activity (juglone reduction activity) in this assay are indicative of stronger prooxidant activity.

For orientation: IC50 means the midpoint of a concentration-inhibition curve. Lower therefore signals inhibition by little substance. For the compound `NC(=O)c1ccc(I)c([N+](=O)[O-])c1` [Iniparib, 4-Iodo-3-nitrobenzamide, reference compound], the IC50 in series [1] is > 33 µM; in the series with MDA-MB-231 cells it was 54.4 µM; on GR from baker's yeast, > 30 µM; in series [2], 57.6 µM; in series [3], > 33 µM. In addition, the “CD8+ levels in tumors relative to no treatment controls” value with 4T1 tumors is on record as “significantly increased”. The “ratio of CD8+ cells to Treg cells in tumours” value in the series on 4T1 tumors is “increases”. The “classification as SecTRAP forming agent” value at recombinant TrxR (DTNB assay inhibited, juglone activity retained) is reported as “SecTRAP forming compound”. Moreover, the “N-terminal juglone reduction activity” value at recombinant TrxR (Iniparib at 1 mM compared with OT-1000 at 1 μM (FIG. 1B)) is listed as “retained at a similar level to that obtained for OT-1000”.
Take `COc1ccc([N+](=O)[O-])c(S(=O)(=O)c2ccc(Cl)cc2)n1` [OT-1000, 2-((4-Chlorophenyl)sulfonyl)-6-methoxy-3-nitropyridine]: the IC50 in series [1] is 9.21 µM; with MDA-MB-231 cells, 3.53 µM; against GR from baker's yeast, > 30 µM; in series [2], 1.2 µM; in series [3], 12.7 µM.
Turning to `CCCCCCCCS(=O)(=O)c1nc(OC)ccc1[N+](=O)[O-]` [OT-1096, 6-methoxy-3-nitro-2-(octylsulfonyl)pyridine], in the series on 4T1 tumors, the “CD8+ levels in tumors relative to no treatment controls” value is on record as “significantly increased” and the “ratio of CD8+ cells to Treg cells in tumours” value is reported as “increases”. Moreover, at GR from baker's yeast, the IC50 was > 30 µM. This compound also registered an IC50 in series [2] of 3.22 µM. Also, the “Juglone Act (% @ 100% DTNB inhibition)” value at recombinant TrxR is 86.96%.
Take `CCS(=O)(=O)c1nc(OC)ccc1[N+](=O)[O-]` [OT-1129, 2-(ethylsulfonyl)-6-methoxy-3-nitropyridine]: the half-inhibitory concentration (IC50) at GR from baker's yeast is > 30 µM; in series [2] it was 1.12 µM. The “Juglone Act (% @ 100% DTNB inhibition)” value at recombinant TrxR is 74.83%.

The values above are taken from patent publication US20210038577A1, “THIOREDOXIN REDUCTASE INHIBITORS FOR USE IN THE TREATMENT OF CANCER” (Cinda Pharma AB, priority 2018, published 2021).
